Test results reported in ChEMBL document CHEMBL5696441 (Nat Chem Biol, 2011).

What was measured:
[1] = target: Serine/threonine-protein kinase RIO2 (Homo sapiens) (UniProt Q9BVS4); test: Inhibition of RIOK2 (unknown origin) assessed as remaining activity at 1 uM by Kinome scan method relative to control
[2] = target: Serine/threonine-protein kinase tousled-like 2 (Homo sapiens) (UniProt Q86UE8); test: Inhibition of TLK2 (unknown origin) assessed as remaining activity at 1 uM by Kinome scan method relative to control
[3] = target: Fibroblast growth factor receptor 3 (Homo sapiens) (UniProt P22607); test: Inhibition of FGFR3 (unknown origin) assessed as remaining activity at 1 uM by Kinome scan method relative to control
[4] = target: Serine/threonine-protein kinase STK11 (Homo sapiens) (UniProt Q15831); test: Inhibition of LKB1 (unknown origin) assessed as remaining activity at 1 uM by Kinome scan method relative to control
[5] = target: Misshapen-like kinase 1 (Homo sapiens) (UniProt Q8N4C8); test: Inhibition of MINK (unknown origin) assessed as remaining activity at 1 uM by Kinome scan method relative to control
[6] = target: Mitogen-activated protein kinase 14 (Homo sapiens) (UniProt Q16539); test: Inhibition of non-phosphorylated human N-terminal His-P38alpha overexpressed in Escherichia coli BL21 (DE3) assessed as remaining activity at 1 uM by Kinome scan method relative to control
[7] = target: T1, Aurora kinase C (Homo sapiens) (UniProt Q9UQB9); test: Inhibition of AURKC (unknown origin) assessed as remaining activity at 1 uM by Kinome scan method relative to control
T1 sequence (whole entry): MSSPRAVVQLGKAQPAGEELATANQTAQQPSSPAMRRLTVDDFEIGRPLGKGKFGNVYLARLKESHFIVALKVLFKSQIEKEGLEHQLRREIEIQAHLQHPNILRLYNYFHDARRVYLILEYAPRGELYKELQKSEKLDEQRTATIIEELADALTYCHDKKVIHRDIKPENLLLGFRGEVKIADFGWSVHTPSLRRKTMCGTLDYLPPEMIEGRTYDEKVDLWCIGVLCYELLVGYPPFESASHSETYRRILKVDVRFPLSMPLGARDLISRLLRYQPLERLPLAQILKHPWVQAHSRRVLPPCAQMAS

[8] = target: T2, Serine/threonine-protein kinase D1 (Homo sapiens) (UniProt Q15139); test: Inhibition of PRKD1 (unknown origin) assessed as remaining activity at 1 uM by Kinome scan method relative to control
T2 sequence (whole entry): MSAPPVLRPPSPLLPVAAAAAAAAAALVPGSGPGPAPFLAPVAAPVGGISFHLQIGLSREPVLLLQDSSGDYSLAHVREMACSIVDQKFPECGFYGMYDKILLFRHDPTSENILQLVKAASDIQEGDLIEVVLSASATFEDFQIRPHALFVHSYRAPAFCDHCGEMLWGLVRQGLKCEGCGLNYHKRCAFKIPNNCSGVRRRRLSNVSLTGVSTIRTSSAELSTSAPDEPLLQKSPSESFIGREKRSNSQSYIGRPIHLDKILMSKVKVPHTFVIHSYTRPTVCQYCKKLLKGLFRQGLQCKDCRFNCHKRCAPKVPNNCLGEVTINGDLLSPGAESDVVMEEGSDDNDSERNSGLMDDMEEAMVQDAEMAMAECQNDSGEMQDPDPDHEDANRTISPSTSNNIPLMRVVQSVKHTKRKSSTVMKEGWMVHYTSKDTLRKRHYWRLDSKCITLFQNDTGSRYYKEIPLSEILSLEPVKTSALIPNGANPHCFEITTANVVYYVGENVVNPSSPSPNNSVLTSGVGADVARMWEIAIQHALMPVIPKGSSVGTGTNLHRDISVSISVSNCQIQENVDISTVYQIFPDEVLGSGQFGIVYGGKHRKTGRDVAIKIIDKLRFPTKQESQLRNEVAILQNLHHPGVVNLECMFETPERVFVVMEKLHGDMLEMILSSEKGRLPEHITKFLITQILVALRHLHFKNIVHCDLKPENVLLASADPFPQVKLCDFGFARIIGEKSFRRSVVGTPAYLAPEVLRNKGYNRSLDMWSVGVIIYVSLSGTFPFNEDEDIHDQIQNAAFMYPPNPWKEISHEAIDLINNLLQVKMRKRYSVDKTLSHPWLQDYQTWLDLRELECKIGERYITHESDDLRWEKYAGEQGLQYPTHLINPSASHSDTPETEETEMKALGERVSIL

[9] = target: Wee1-like protein kinase (Homo sapiens) (UniProt P30291); test: Inhibition of WEE1 (unknown origin) assessed as remaining activity at 1 uM by Kinome scan method relative to control
[10] = target: STE20/SPS1-related proline-alanine-rich protein kinase (Homo sapiens) (UniProt Q9UEW8); test: Inhibition of STK39 (unknown origin) assessed as remaining activity at 1 uM by Kinome scan method relative to control
[11] = target: Homeodomain-interacting protein kinase 3 (Homo sapiens) (UniProt Q9H422); test: Inhibition of HIPK3 (unknown origin) assessed as remaining activity at 1 uM by Kinome scan method relative to control
[12] = target: Tyrosine-protein kinase Blk (Homo sapiens) (UniProt P51451); test: Inhibition of BLK (unknown origin) assessed as remaining activity at 1 uM by Kinome scan method relative to control
[13] = target: Cyclin-dependent kinase 11B (Homo sapiens) (UniProt P21127); test: Inhibition of CDC2L1 (unknown origin) assessed as remaining activity at 1 uM by Kinome scan method relative to control
[14] = target: Activin receptor type-1-like (Homo sapiens) (UniProt P37023); test: Inhibition of ACVRL1 (unknown origin) assessed as remaining activity at 1 uM by Kinome scan method relative to control
[15] = target: Microtubule-associated serine/threonine-protein kinase 1 (Homo sapiens) (UniProt Q9Y2H9); test: Inhibition of MAST1 (unknown origin) assessed as remaining activity at 1 uM by Kinome scan method relative to control
[16] = target: Mitogen-activated protein kinase kinase kinase 20 (Homo sapiens) (UniProt Q9NYL2); test: Inhibition of ZAK (unknown origin) assessed as remaining activity at 1 uM by Kinome scan method relative to control
[17] = target: Non-receptor tyrosine-protein kinase TYK2 (Homo sapiens) (UniProt P29597); test: Inhibition of TYK2 JH1 domain (unknown origin) assessed as remaining activity at 1 uM by Kinome scan method relative to control
[18] = target: Interleukin-1 receptor-associated kinase 3 (Homo sapiens) (UniProt Q9Y616); test: Inhibition of IRAK3 (unknown origin) assessed as remaining activity at 1 uM by Kinome scan method relative to control
[19] = target: Mitogen-activated protein kinase kinase kinase kinase 3 (Homo sapiens) (UniProt Q8IVH8); test: Inhibition of MAP4K3 (unknown origin) assessed as remaining activity at 1 uM by Kinome scan method relative to control
[20] = target: Dual specificity mitogen-activated protein kinase kinase 3 (Homo sapiens) (UniProt P46734); test: Inhibition of MEK3 (unknown origin) assessed as remaining activity at 1 uM by Kinome scan method relative to control
Chain of Dual specificity mitogen-activated protein kinase kinase 3 (Homo sapiens) (P46734 whole entry): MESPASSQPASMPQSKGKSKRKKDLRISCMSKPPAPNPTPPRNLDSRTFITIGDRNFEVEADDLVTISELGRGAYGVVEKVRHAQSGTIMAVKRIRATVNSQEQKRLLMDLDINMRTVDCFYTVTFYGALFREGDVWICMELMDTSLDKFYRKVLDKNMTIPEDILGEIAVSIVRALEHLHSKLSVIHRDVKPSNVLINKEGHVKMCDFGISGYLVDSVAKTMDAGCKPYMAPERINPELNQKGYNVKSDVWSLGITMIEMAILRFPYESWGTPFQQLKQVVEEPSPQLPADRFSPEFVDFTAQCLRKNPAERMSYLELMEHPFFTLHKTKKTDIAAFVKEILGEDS

Chain of Non-receptor tyrosine-protein kinase TYK2 (Homo sapiens) (P29597 whole entry, the tested form may be a part): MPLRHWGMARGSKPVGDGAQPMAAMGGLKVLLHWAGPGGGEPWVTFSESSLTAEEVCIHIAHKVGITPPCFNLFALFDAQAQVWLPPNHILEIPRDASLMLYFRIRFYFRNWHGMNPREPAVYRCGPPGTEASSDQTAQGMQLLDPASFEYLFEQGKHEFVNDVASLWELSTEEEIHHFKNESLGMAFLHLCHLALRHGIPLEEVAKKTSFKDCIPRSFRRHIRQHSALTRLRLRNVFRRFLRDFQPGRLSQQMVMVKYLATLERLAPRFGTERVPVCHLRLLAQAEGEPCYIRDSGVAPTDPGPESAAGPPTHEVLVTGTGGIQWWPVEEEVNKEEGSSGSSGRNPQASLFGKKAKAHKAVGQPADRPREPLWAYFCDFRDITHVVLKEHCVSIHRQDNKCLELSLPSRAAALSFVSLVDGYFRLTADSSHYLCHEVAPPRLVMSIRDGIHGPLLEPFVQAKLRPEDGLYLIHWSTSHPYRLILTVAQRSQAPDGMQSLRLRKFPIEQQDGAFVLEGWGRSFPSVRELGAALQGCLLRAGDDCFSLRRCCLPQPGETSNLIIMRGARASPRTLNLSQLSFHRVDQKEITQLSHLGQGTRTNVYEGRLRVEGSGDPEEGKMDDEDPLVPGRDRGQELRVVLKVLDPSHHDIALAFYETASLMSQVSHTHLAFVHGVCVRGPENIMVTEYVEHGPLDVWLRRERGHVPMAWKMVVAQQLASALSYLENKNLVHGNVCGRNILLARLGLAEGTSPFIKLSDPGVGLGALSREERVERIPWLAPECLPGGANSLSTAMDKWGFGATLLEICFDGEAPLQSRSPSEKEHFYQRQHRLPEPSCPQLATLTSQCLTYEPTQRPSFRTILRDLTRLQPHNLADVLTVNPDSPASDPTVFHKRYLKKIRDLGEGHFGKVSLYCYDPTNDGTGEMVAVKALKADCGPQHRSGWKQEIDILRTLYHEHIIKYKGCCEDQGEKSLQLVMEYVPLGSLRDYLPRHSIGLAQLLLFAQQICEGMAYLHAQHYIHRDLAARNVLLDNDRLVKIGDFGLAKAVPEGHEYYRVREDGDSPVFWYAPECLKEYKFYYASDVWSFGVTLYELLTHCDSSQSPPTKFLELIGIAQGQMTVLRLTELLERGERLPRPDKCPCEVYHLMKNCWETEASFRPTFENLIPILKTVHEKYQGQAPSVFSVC
Chain of Homeodomain-interacting protein kinase 3 (Homo sapiens) (Q9H422 whole entry, looked up): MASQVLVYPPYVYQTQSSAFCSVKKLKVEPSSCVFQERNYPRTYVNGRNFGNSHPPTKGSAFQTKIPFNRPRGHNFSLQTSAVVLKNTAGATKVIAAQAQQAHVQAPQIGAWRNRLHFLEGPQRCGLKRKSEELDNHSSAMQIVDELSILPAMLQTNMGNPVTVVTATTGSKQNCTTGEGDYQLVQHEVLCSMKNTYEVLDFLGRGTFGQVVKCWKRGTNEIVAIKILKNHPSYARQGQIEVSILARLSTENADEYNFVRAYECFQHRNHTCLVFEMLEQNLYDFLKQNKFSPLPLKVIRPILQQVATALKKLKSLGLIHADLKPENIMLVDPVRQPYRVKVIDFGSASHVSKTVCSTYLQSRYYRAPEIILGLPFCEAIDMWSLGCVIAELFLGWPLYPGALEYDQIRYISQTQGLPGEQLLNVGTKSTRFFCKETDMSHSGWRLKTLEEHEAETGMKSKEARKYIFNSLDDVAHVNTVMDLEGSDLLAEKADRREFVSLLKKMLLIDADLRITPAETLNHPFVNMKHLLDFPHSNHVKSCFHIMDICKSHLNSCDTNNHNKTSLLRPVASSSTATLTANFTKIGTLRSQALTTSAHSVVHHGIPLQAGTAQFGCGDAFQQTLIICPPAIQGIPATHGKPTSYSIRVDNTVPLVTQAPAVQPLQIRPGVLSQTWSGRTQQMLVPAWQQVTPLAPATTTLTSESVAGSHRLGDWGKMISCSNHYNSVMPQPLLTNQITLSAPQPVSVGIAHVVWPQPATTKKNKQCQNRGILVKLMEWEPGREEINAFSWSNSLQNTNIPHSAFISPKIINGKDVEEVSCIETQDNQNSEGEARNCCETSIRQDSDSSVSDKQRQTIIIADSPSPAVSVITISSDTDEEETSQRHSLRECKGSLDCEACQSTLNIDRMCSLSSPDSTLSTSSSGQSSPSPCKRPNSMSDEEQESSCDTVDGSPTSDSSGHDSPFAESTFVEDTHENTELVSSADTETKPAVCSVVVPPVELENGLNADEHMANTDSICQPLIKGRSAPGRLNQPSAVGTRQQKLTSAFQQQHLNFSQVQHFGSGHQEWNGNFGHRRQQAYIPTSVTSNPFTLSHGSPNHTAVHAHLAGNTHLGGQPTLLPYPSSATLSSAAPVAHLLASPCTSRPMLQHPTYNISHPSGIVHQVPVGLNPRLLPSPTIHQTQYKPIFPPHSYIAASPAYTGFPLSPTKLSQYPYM
Chain of Cyclin-dependent kinase 11B (Homo sapiens) (P21127 whole entry): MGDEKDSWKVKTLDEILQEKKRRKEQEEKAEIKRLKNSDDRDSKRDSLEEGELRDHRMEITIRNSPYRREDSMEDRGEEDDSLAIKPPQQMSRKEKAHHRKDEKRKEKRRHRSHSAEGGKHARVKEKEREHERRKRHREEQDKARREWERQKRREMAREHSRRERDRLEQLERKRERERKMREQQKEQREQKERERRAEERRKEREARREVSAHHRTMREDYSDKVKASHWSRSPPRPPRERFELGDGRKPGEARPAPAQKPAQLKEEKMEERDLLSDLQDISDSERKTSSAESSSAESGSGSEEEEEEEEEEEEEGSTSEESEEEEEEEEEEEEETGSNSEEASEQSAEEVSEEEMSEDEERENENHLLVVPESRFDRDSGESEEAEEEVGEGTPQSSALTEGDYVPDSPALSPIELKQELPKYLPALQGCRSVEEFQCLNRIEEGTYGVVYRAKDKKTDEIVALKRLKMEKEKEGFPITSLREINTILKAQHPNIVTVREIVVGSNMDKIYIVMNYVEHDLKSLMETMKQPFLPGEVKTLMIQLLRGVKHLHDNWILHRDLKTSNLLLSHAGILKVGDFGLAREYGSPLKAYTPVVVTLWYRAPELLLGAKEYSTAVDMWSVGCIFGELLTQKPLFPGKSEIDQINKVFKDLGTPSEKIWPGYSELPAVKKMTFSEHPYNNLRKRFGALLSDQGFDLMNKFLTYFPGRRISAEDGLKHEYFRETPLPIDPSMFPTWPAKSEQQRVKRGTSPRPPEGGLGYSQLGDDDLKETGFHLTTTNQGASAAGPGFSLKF
Chain of Misshapen-like kinase 1 (Homo sapiens) (Q8N4C8 whole entry, looked up): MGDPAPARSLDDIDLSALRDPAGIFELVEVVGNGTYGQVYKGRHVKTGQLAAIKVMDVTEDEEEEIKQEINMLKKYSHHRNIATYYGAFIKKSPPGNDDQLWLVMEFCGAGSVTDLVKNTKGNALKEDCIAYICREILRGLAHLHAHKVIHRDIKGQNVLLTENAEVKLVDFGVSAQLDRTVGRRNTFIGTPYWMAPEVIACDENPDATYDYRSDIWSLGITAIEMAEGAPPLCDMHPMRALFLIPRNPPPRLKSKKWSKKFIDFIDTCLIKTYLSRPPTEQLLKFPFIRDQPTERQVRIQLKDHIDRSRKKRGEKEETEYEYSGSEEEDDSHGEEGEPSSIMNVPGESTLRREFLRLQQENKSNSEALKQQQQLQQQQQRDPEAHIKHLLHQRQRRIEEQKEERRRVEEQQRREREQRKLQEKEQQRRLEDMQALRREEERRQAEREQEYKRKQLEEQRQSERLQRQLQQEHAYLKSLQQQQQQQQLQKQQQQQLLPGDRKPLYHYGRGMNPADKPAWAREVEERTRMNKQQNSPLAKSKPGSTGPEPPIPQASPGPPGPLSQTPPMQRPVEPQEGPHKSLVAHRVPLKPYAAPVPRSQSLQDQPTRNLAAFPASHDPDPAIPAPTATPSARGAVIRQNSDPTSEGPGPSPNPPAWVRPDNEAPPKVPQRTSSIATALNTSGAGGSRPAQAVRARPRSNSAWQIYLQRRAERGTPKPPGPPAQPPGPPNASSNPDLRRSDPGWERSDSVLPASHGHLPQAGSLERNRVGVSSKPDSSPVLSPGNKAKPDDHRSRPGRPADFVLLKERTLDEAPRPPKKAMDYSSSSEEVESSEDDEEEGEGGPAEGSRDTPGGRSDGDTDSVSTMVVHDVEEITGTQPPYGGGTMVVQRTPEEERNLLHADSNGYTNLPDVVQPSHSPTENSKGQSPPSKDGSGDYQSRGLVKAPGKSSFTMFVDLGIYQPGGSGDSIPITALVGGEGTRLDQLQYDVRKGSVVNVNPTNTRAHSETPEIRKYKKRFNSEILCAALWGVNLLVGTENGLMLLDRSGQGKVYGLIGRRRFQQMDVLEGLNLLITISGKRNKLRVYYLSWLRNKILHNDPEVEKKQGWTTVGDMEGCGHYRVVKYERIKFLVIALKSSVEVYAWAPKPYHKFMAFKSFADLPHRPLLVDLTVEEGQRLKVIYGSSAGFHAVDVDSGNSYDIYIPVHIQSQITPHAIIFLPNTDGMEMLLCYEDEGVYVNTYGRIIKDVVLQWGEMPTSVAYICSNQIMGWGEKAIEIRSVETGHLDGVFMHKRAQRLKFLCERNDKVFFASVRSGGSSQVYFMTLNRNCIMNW

Row | Structure (SMILES) | Activity [1] | Activity [2] | Activity [3] | Activity [4] | Activity [5] | Activity [6] | Activity [7] | Activity [8] | Activity [9] | Activity [10] | Activity [11] | Activity [12] | Activity [13] | Activity [14] | Activity [15] | Activity [16] | Activity [17] | Activity [18] | Activity [19] | Activity [20]
1 | Nc1ccccc1Nc1ccc2c(c1)CCc1ccccc1C2=O | 85% | 85% | 77% | 98% | 81% | 0.2% | 91% | 91% | 98% | 77% | 64% | 66% | 94% | 89% | 79% | 85% | 83% | 90% | 75% | 97%
2 | O=C1c2ccc(Nc3ccc(F)cc3F)cc2CCc2ccc(OC[C@H](O)CO)cc21 [Skepinone-L] | 81% | 82% | 95% | 100% | 100% | 0.2% | 90% | 100% | 100% | 93% | 67% | 97% | 99% | 100% | 85% | 98% | 58% | 97% | 88% | 95%
